Measurements taken from patent US20240270751A1, “Pyrazolopyridinone Compounds” (BeiGene Ltd., priority 2021, published 2024).

Key:
DGKζ = DGKζ (Homo sapiens (Human), UniProt Q13574); assay: Biochemical DGK IC50 assay, DGKζ ADP-Glo assay; conditions: 0.5 nM enzyme, 140 μM ATP, 80 μM DAG; read-out: DGKζ ADP-Glo assay IC50
Protocol: (§1) Enzymatic reactions of DGKζ, DGKα and DGKδ were performed using ADP-Glo assay with lipid micelle substrate. […] Full length DGKα (D21-10BG, SignalChem) and full length DGKδ (D23-10G, SignalChem) were purchased. Lipid micelle was prepared by dissolving DAG (Sigma, 317505-10MG) and PS (Sigma, P7769-100MG) with chloroform which was furtherly removed by rotary evaporation. The resulted product was resuspended in buffer containing 25 mM HEPES pH 7.0, 0.5 mM EDTA and 160 mM Octyl β-D glucopyranoside by vigorous mixing and ultrasonic (IID, Scientz).
(§2) The ranges of compounds final concentration were 1.55˜10000 nM or 23.3˜150000 nM. 3 μL 2× enzyme solution was added to wells.
Human His-TEV-DGK-zeta-pFastBac1 and human baculovirus samples was generated using the Bac-to-Bac baculovirus expression system (Invitrogen) according to the manufacturer's protocol. The DNA used for expression of DGK-zeta, have SEQ ID Nos: 1. Baculovirus amplification was achieved using infected SF9 cells at 1:2000 virus/cells ratios, and grown for 96 hours at 27° C. post-transfected.
The expression scaled up for each protein was carried out in the […] from CORNING. 4 L of 3×10^6 cells/mL Sf9 cells (Expression System, Invitrogen) grown in SF900™ II SFM insect medium (Expression System) was infected with virus stock at 1:200 virus/cells ratio, and grown for 48 hours at 27° C. post-transfection. The infected cell culture was harvested by centrifugation at 6000 rpm for 15 min 4° C. in a SORVALL LYNX6000 centrifuge. The cell pellets were stored at −80° C.
Full length human DGKζ produced as described above, was purified from Sf9 baculovirus-infected insect cell paste. The cells were lysed using sonication method, and the lysates were clarified by centrifugation.

DGKα = DGKα (Homo sapiens (Human), UniProt P23743); assay: Biochemical DGK IC50 assay, DGKα ADP-Glo assay; conditions: 7.5 nM enzyme, 140 μM ATP, 80 μM DAG
Sequence of DGKα (P23743 whole entry): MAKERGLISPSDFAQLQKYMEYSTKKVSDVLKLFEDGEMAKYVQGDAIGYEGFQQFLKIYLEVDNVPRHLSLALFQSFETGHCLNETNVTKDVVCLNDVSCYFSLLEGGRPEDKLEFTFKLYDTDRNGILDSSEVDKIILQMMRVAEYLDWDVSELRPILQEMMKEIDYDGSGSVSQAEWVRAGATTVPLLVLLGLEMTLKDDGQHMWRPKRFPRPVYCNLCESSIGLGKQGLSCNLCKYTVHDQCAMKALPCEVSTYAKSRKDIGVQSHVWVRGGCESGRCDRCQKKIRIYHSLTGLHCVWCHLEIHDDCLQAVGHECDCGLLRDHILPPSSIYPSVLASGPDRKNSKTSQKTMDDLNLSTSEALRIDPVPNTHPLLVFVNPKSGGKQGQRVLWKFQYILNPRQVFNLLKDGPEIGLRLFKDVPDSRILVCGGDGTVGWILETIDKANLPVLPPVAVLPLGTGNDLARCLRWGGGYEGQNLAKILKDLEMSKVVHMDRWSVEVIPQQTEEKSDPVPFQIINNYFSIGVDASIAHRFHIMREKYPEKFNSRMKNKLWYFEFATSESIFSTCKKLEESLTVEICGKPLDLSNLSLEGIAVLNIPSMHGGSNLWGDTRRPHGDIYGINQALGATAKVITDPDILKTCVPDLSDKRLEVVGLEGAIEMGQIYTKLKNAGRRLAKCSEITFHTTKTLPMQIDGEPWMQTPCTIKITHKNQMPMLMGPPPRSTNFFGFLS
Protocol: as §1, §2

Sequence of DGKζ (Q13574 other isoform, or with tags, fused parts or gaps): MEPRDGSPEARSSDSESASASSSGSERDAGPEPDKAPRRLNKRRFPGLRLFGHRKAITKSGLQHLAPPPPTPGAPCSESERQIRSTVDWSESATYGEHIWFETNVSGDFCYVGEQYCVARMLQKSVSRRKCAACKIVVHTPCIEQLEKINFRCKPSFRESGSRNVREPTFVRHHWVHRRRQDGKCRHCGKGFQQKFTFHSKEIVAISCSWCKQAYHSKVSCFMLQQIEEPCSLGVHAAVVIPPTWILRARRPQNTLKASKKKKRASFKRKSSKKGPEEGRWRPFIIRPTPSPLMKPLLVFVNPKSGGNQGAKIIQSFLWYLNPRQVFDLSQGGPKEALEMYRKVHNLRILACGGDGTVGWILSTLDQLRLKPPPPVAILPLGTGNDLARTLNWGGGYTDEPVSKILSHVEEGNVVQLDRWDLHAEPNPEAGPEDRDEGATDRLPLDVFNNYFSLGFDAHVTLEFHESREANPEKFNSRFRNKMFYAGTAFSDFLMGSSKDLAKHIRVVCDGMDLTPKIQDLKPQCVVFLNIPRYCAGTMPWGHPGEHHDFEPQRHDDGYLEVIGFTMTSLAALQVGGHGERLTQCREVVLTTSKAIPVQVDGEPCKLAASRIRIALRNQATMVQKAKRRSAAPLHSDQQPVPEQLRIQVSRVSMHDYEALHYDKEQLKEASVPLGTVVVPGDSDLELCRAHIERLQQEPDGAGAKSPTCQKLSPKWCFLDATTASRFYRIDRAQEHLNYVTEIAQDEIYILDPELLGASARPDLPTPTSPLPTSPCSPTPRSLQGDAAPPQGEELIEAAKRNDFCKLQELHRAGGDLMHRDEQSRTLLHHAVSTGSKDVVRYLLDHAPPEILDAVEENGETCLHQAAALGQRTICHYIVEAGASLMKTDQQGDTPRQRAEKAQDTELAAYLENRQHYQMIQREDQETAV

SMILES | IC50 (DGKζ) | IC50 (DGKα)
CC[C@@H]1CN(c2c(C#N)c(=O)[nH]c3cn(CC#N)nc23)[C@@H](C)CN1C(C)c1ccc2nccnc2c1 (single isomer, unassigned) [Compound A200b] | 5.38 µM | > 10 µM
CC[C@H]1CN(C(C)c2nc3ccccc3s2)[C@H](CC)CN1c1cc(=O)n(C)c2cn(CC#N)nc12 (stereo partly drawn) [Compound A52, 2-(7-((2S,5R)-4-(1-(benzo[d]thiazol-2-yl)ethyl)-2,5-diethylpiperazin-1-yl)-4-methyl-5-oxo-4,5-dihydro-2H-pyrazolo[4,3-b]pyridin-2-yl)acetonitrile] | 0.072 µM | 0.031 µM
CC[C@H]1CN(C(C)c2ncc(OC(C)C)cc2F)[C@H](CC)CN1c1cc(=O)n(C)c2cn(CC#N)nc12 (stereo partly drawn) [Compound A387] | 4.89 µM | 75 µM
CC[C@H]1CN(C(C)c2ccc(C)cc2)[C@H](CC)CN1c1cc(=O)n(C)c2cn(CC#N)nc12 (stereo partly drawn) [Compound A127, 2-(7-((2S,5R)-2,5-diethyl-4-(1-(p-tolyl)ethyl)piperazin-1-yl)-4-methyl-5-oxo-4,5-dihydro-2H-pyrazolo[4,3-b]pyridin-2-yl)acetonitrile] | 0.26 µM | 0.056 µM
CC[C@H]1CN(C(C)c2cnc(C)cn2)[C@H](CC)CN1c1cc(=O)n(C)c2cn(CC#N)nc12 (stereo partly drawn) [Compound A356] | 1.57 µM | 0.635 µM
CC[C@@H]1CN(c2c(C#N)c(=O)n(CC#N)c3cn(CC#N)nc23)[C@@H](C)CN1C(C)c1ccc2nccnc2c1 (stereo partly drawn) [Compound A189, 2,2′-(6-cyano-7-((2S,5R)-5-ethyl-2-methyl-4-(1-(quinoxalin-6-yl)ethyl)piperazin-1-yl)-5-oxo-2H-pyrazolo[4,3-b]pyridine-2,4(5H)-diyl)diacetonitrile] | 3.1 µM | > 10 µM
Cc1cnc2ccc(C(C)N3C[C@H](C)N(c4cc(=O)n(C)c5cn(CC#N)nc45)C[C@H]3C)cc2n1 (stereo partly drawn) [Compound A269 (RII), 2-(7-((2S,5R)-2,5-dimethyl-4-(1-(3-methylquinoxalin-6-yl)ethyl)piperazin-1-yl)-4-methyl-5-oxo-4,5-dihydro-2H-pyrazolo[4,3-b]pyridin-2-yl)acetonitrile] | 0.035 µM | > 10 µM
Cc1nc2cc(C(C)N3C[C@H](C)N(c4cc(=O)n(C)c5cn(CC#N)nc45)C[C@H]3C)ccc2nc1O (stereo partly drawn) [Compound A316, 2-(7-((2S,5R)-4-(1-(2-hydroxy-3-methylquinoxalin-6-yl)ethyl)-2,5-dimethylpiperazin-1-yl)-4-methyl-5-oxo-4,5-dihydro-2H-pyrazolo[4,3-b]pyridin-2-yl)acetonitrile] | > 10 µM | 67 µM
CC[C@H]1CN(C(C)c2cnc3c(n2)CCCC3)[C@H](CC)CN1c1cc(=O)n(C)c2cn(CC#N)nc12 (single isomer, unassigned) [Compound A357b] | 0.012 µM | 0.646 µM
CC[C@H]1CN(C(C)c2ccc(F)cc2Br)[C@H](CC)CN1c1cc(=O)n(C)c2cn(CC#N)nc12 (stereo partly drawn) [Compound A111, 2-(7-((2S,5R)-4-(1-(2-bromo-4-fluorophenyl)ethyl)-2,5-diethylpiperazin-1-yl)-4-methyl-5-oxo-4,5-dihydro-2H-pyrazolo[4,3-b]pyridin-2-yl)acetonitrile] | 0.096 µM | > 10 µM
CC[C@H]1CN(C(C)c2ccc(Cl)cc2C(F)(F)F)[C@H](CC)CN1c1cc(=O)n(C)c2cn(CC#N)nc12 (stereo partly drawn) [Compound A277] | 2.11 µM | > 10 µM
CC[C@H]1CN(C(C)c2ccc(C(F)F)nc2)[C@H](CC)CN1c1cc(=O)n(C)c2cn(CC#N)nc12 (single isomer, unassigned) [Compound A351a] | 0.167 µM | 0.274 µM
CC[C@H]1CN(C(C)c2ccc(CN3CCC(F)(F)CC3)cc2)[C@H](CC)CN1c1cc(=O)n(C)c2cn(CC#N)nc12 (stereo partly drawn) [Compound A344] | 0.198 µM | 0.108 µM
CC[C@H]1CN(C(C)c2ccc(C(F)(F)F)cc2F)[C@H](CC)CN1c1cc(=O)n(C)c2cn(CC#N)nc12 (single isomer, unassigned) [Compound A69b] | 4.9 µM | 3 µM
CC(c1ccc2nccnc2c1)N1CCN(c2cc(=O)n(C)c3cn(CC#N)nc23)C[C@@H]1C (stereo partly drawn) [Compound A178] | 6.9 µM | > 10 µM
C=C(C)n1cc2c(n1)c(N1C[C@@H](CC)N(Cc3ccc(OC(F)(F)F)cc3)C[C@@H]1CC)cc(=O)n2C [Compound A27] | > 10 µM | 0.0043 µM
CC[C@H]1CN(C(C)c2cccn(C)c2=O)[C@H](CC)CN1c1cc(=O)n(C)c2cn(CC#N)nc12 (stereo partly drawn) [Compound A104] | > 10 µM | > 10 µM

SMILES | IC50 (DGKζ) | IC50 (DGKα)
CC(c1ccc(Cl)cc1C(F)(F)F)N1C[C@H](C)N(c2cc(=O)n(C)c3cn(CC#N)nc23)C[C@H]1C (stereo partly drawn) [Compound A251] | 3.27 µM | > 10 µM
CC[C@H]1CN(C(C)c2ccc(F)cc2C2CC2)[C@H](CC)CN1c1cc(=O)n(C)c2cn(CC#N)nc12 (stereo partly drawn) [Compound A175] | 0.305 µM | > 10 µM
CC[C@H]1CN(C(C)c2cnc3c(n2)CCCC3)[C@H](CC)CN1c1cc(=O)n(C)c2cn(CC#N)nc12 (single isomer, unassigned) [Compound A357a] | 2.54 µM | 2.45 µM
CC[C@H]1CN(C(C)c2cnc3ccccc3n2)[C@H](CC)CN1c1cc(=O)n(C)c2cn(CC#N)nc12 (single isomer, unassigned) [Compound A155a] | 1.38 µM | 0.728 µM
CC[C@H]1CN(C(C(=O)NCCOC)c2ccc(C(F)(F)F)cc2)[C@H](CC)CN1c1cc(=O)n(C)c2cn(CC#N)nc12 (stereo partly drawn) [Compound A296, 2-((2R,5S)-4-(2-(cyanomethyl)-4-methyl-5-oxo-4,5-dihydro-2H-pyrazolo[4,3-b]pyridin-7-yl)-2,5-diethylpiperazin-1-yl)-N-(2-methoxyethyl)-2-(4-(trifluoromethyl)phenyl)acetamide] | 0.189 µM | 3.9 µM
CC(c1ccc2nc(C(F)(F)F)cnc2c1)N1C[C@H](C)N(c2cc(=O)n(C)c3cn(CC#N)nc23)C[C@H]1C (stereo partly drawn) [Compound A315, 2-(7-((2S,5R)-2,5-dimethyl-4-(1-(2-(trifluoromethyl)quinoxalin-6-yl)ethyl)piperazin-1-yl)-4-methyl-5-oxo-4,5-dihydro-2H-pyrazolo[4,3-b]pyridin-2-yl)acetonitrile] | 3.59 µM | 61 µM
CC[C@@H]1CN(c2c(F)c(=O)[nH]c3cn(CC#N)nc23)[C@@H](C)CN1C(C)c1ccc2nccnc2c1 (single isomer, unassigned) [Compound A194a] | 0.155 µM | 6.35 µM
CC[C@H]1CN(C(C)c2ccc(OCC3CCOC3)cc2)[C@H](CC)CN1c1cc(=O)n(C)c2cn(CC#N)nc12 (stereo partly drawn) [Compound A376] | 0.602 µM | 0.206 µM
CC[C@H]1CN(C(C)c2ccc(F)cc2OC)[C@H](CC)CN1c1cc(=O)n(CCO)c2cn(CC#N)nc12 (single isomer, unassigned) [Compound A153b] | 0.545 µM | > 10 µM
C[C@@H]1CN(c2c(C#N)c(=O)n(C)c3cn(CC#N)nc23)[C@@H](C)CN1[C@@H](C)c1ccc2nccnc2c1 [Compound A134, 2-(cyanomethyl)-7-((2S,5R)-2,5-dimethyl-4-((S)-1-(quinoxalin-6-yl)ethyl)piperazin-1-yl)-4-methyl-5-oxo-4,5-dihydro-2H-pyrazolo[4,3-b]pyridine-6-carbonitrile] | 0.035 µM | 1.94 µM
CC[C@H]1CN(C(C)c2ccc(F)cc2NC)[C@H](CC)CN1c1cc(=O)n(C)c2cn(CC#N)nc12 (stereo partly drawn) [Compound A163] | 4.42 µM | > 10 µM
CC[C@H]1CN(C(C)c2ccccc2C(F)(F)F)[C@H](CC)CN1c1cc(=O)n(C)c2cn(CC#N)nc12 (single isomer, unassigned) [Compound A197a] | 2.05 µM | > 10 µM
CC[C@H]1CN(C(C)c2cccnc2OC)[C@H](CC)CN1c1cc(=O)n(C)c2cn(CC#N)nc12 (stereo partly drawn) [Compound A105] | 0.258 µM | 8.92 µM
CC[C@H]1CN(C(C)c2ccc(C(F)(F)F)nc2)[C@H](CC)CN1c1cc(=O)n(C)c2cn(CC#N)nc12 (single isomer, unassigned) [Compound A135b] | 1.3 µM | 0.428 µM
CC[C@H]1CN([C@H](C)c2ccc3nccnc3c2)[C@H](CC)CN1c1cc(=O)n(CC(F)(F)F)c2cn(CC#N)nc12 [Compound A124] | > 10 µM | > 10 µM
CC[C@@H]1CN(c2cc(=O)n(C)c3cn(CC#N)nc23)[C@@H](CO)CN1C(C)c1ccc2nccnc2c1 (stereo partly drawn) [Compound A229, 2-(7-((2R,5R)-5-ethyl-2-(hydroxymethyl)-4-(1-(quinoxalin-6-yl)ethyl)piperazin-1-yl)-4-methyl-5-oxo-4,5-dihydro-2H-pyrazolo[4,3-b]pyridin-2-yl)acetonitrile] | 0.166 µM | 24.1 µM
